This is an account of results in patent US9079901B2, “Fused heterocyclic compounds as ion channel modulators” (Gilead Sciences, Inc., priority 2010, dated 2015).

Each structure is given as a SMILES string.

The target in this assay is wild-type human cardiac sodium channel, hNav1.5 (late sodium current) in HEK293 cells (Homo sapiens, UniProt Q14524). In words: Late INa screening assay (automated whole-cell patch clamp, PatchXpress). The format is cell-based. Conditions: HEK293, compound at 1 μM; late INa generated with 10 μM Tefluthrin (or 50 nM ATX II); HEK293 hNav1.5; read-out: Late INa 1 μM (percent block of late INa). The procedure:
The late sodium current (Late INa) and peak sodium current (Peak INa) assays are performed on an automated electrophysiology platform, PatchXpress 7000A (MDS Analytical Technologies, Sunnyvale, Calif.), which uses the whole cell patch clamp technique to measure currents through the cell membrane of up to 16 cells at a time. The assay uses an HEK293 (human embryonic kidney) cell line heterologously expressing the wild-type human cardiac sodium channel, hNav1.5, purchased from Millipore (Billerica, Mass.). No beta subunits were coexpressed with the Na channel alpha subunit. Cells are maintained with standard tissue culture procedures and stable channel expression is maintained with 400 μg/ml Geneticin in the culture medium. Cells isolated for use on PatchXpress are incubated for 5 minutes in Versene 1× and then for 2 minutes in 0.0125% Trypsin-EDTA (both at 37° C.) to ensure that 80-90% of the cells are single and not part of a cell cluster. Experiments are carried out at 24-27° C.
For both the Late INa and Peak INa assays, series resistance compensation is set to 50% and whole-cell compensation is performed automatically. Currents are low-pass filtered at 10 kHz and digitized at 31.25 kHz. Currents through open sodium channels are automatically recorded and stored in the DataXpress2 database (MDS Analytical Technologies, Sunnyvale, Calif.). Analysis is performed using DataXpress2 analysis software and data are compiled in Excel.
Compound stocks are routinely made in glass vials to 10 mM in dimethyl sulfoxide (DMSO). In some cases, when compounds are not soluble in DMSO, they are made in 100% ethanol. Stocks are sonicated as necessary. The extracellular solution for screening Late INa is composed of: 140 mM NaCl, 4 mM KCl, 1.8 mM CaCl2, 0.75 mM MgCl2, and 5 mM HEPES with pH adjusted to 7.4 using NaOH. The extracellular solution for screening Peak INa is composed of: 20 mM NaCl, 120 mM N-methyl-D glucamine, 4 mM KCl, 1.8 mM CaCl2, 0.75 mM MgCl2, and 5 mM HEPES with pH adjusted to 7.4 using HCl. The intracellular solution used to perfuse the inside of the cells for both the Late INa and Peak INa assays contains: 120 mM CsF, 20 mM CsCl, 5 mM EGTA, 5 mM HEPES and pH adjusted to 7.4 with CsOH. Compounds are diluted in extracellular solution to 10 μM in glass vials and then transferred to glass well plates before robotic addition to the cells. The 0Na extracellular solution used at the end of each experiment for the Late INa and Peak INa assays to measure baseline current contains: 140 mM N-methyl-D-glucamine; 4 mM KCl; 1.8 mM CaCl2; 0.75 mM MgCl2; 5 mM HEPES and pH was adjusted to 7.4 with HCl.
For the Late INa assay, sodium channels are activated every 10 seconds (0.1 Hz) by depolarizing the cell membrane to −20 mV for 250 milliseconds (ms) from a holding potential of −120 mV. In response to a −20 mV voltage step, typical Nav1.5 sodium currents activate rapidly to a peak negative current and then inactivate nearly completely within 3-4 ms.
All compounds are tested to determine their activity in blocking the late sodium current. Late INa current is generated by adding 10 μM Tefluthrin (pyrethroid) to the extracellular solution while recording Na currents. For some experiments, 50 nM ATX II (sea anemone toxin), another late INa activator, was used to generate the late component. Both activators generate late components that are large enough that block of the late component by compounds can be measured easily. For the purposes of the screening, late INa is defined as the mean current between 225 ms and 250 ms after stepping to −20 mV to activate Na channels. After establishing the whole cell recording configuration, late INa activators are added to each well 4 times over a 16-17 minute period so that the late component of the Na current reaches a stable value. Compounds are then added (typically at 10 μM), in the presence of late INa activator, with 3 additions over the course of 7 or 8 minutes. […]
Background: In patch-clamp work, channel activity is measured electrically.

Sequence of wild-type human cardiac sodium channel, hNav1.5 (late sodium current) in HEK293 cells (Q14524 whole entry): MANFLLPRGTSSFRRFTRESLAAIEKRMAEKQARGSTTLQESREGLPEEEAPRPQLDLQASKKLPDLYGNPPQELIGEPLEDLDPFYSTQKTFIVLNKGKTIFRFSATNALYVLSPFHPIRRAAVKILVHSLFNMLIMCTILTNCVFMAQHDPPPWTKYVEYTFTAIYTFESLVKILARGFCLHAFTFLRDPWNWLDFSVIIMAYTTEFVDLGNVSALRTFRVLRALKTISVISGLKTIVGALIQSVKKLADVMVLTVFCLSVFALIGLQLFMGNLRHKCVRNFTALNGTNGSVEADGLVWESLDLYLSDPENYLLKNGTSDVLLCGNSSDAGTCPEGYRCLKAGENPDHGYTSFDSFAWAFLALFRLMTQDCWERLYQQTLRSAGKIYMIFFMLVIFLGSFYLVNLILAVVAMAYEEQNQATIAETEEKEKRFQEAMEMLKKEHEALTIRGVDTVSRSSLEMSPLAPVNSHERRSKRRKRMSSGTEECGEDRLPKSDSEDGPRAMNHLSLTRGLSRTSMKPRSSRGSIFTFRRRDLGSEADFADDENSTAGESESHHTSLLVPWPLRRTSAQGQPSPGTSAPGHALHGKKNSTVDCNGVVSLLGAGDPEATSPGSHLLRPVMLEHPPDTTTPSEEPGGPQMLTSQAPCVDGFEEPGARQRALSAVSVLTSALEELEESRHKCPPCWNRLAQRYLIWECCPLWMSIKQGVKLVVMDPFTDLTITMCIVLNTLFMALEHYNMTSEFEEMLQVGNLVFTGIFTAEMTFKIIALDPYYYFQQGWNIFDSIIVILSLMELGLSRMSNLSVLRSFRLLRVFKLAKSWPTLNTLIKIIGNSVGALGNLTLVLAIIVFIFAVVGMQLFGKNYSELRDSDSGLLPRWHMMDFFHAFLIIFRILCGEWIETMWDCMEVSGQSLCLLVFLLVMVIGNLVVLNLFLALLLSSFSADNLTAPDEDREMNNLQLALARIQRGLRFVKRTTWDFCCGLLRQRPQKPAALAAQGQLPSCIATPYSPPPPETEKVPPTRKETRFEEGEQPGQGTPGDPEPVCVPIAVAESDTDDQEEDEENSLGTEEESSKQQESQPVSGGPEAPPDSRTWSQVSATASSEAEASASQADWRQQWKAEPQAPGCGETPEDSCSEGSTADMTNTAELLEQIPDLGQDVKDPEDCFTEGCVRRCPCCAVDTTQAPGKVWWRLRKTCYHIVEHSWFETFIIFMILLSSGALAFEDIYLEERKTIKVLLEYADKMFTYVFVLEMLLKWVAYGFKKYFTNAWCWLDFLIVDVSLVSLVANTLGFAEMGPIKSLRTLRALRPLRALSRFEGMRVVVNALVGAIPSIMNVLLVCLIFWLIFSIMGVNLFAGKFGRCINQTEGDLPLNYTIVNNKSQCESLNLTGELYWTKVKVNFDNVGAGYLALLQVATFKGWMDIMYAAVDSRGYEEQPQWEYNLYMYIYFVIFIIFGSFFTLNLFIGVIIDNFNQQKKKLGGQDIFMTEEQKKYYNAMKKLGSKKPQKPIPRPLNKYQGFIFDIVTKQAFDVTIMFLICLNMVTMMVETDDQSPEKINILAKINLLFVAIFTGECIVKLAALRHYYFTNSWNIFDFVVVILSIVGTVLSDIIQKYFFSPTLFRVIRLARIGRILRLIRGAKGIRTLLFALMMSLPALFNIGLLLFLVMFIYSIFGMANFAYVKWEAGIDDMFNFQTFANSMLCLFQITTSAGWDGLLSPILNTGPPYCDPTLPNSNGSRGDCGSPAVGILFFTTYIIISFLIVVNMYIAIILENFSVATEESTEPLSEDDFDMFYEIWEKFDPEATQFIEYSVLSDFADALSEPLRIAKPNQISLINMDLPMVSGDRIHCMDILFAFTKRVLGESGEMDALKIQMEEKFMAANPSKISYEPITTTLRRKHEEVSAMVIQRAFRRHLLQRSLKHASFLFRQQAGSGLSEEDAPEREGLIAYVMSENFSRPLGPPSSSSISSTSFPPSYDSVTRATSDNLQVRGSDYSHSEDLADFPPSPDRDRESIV

Consider `Cc1cccc(CCn2nc3ccc(-c4ccc(OC(F)(F)F)cc4)cn3c2=O)n1` [compound 48, 2-(2-(6-methylpyridin-2-yl)ethyl)-6-(4-(trifluoromethoxy)phenyl)-[1,2,4]triazolo[4,3-a]pyridin-3(2H)-one], for which the inhibition at 1 µM amounted to 34.9%.
The same measure for `O=c1n(CCOc2ccccn2)nc2ccc(-c3ccc(OC(F)(F)F)cc3)cn12` [compound 49, 2-(2-(pyridin-2-yloxy)ethyl)-6-(4-(trifluoromethoxy)phenyl)-[1,2,4]triazolo[4,3-a]pyridin-3(2H)-one]: 29.9%.
Under `O=c1n(CCN2CCC(F)(F)CC2)nc2ccc(-c3ccc(OC(F)(F)F)cc3)cn12` [compound 50, 2-(2-(4,4-difluoropiperidin-1-yl)ethyl)-6-(4-(trifluoromethoxy)phenyl)-[1,2,4]triazolo[4,3-a]pyridin-3(2H)-one] stands 14.2%; under `O=c1n(CCCOc2ccccc2F)nc2ccc(-c3ccc(OC(F)(F)F)cc3)cn12` [compound 51, 2-(3-(2-fluorophenoxy)propyl)-6-(4-(trifluoromethoxy)phenyl)-[1,2,4]triazolo[4,3-a]pyridin-3(2H)-one], 25.6%.
As to `O=c1n(CCCOc2ccccc2Cl)nc2ccc(-c3ccc(OC(F)(F)F)cc3)cn12` [compound 52, 2-(3-(2-chlorophenoxy)propyl)-6-(4-(trifluoromethoxy)phenyl)-[1,2,4]triazolo[4,3-a]pyridin-3(2H)-one], the inhibition at 1 µM came to 33.3%.
With `Cc1noc(Cn2nc3ccc(-c4ccc(Oc5ccc(Cl)cc5)cc4)cn3c2=O)n1` [compound 53, 6-(4-(4-chlorophenoxy)phenyl)-2-((3-methyl-1,2,4-oxadiazol-5-yl)methyl)-[1,2,4]triazolo[4,3-a]pyridin-3(2H)-one], the inhibition at 1 µM came out at 55.9%.
In the case of `O=c1n(CCOc2cccc(Cl)c2)nc2ccc(-c3ccc(OC(F)(F)F)cc3)cn12` [compound 54, 2-(2-(3-chlorophenoxy)ethyl)-6-(4-(trifluoromethoxy)phenyl)-[1,2,4]triazolo[4,3-a]pyridin-3(2H)-one], the inhibition at 1 µM was determined as 20.2%.
Under `O=c1n(CCOc2ccc(F)cc2)nc2ccc(-c3ccc(OC(F)(F)F)cc3)cn12` [compound 55, 2-(2-(4-fluorophenoxy)ethyl)-6-(4-(trifluoromethoxy)phenyl)-[1,2,4]triazolo[4,3-a]pyridin-3(2H)-one] stands 24.3%; under `O=c1n(CCc2ncccc2Br)nc2ccc(-c3ccc(OC(F)(F)F)cc3)cn12` [compound 56, 2-(2-(3-bromopyridin-2-yl)ethyl)-6-(4-(trifluoromethoxy)phenyl)-[1,2,4]triazolo[4,3-a]pyridin-3(2H)-one], 39.8%; under `O=c1n(CCc2cc(C3CC3)ccn2)nc2ccc(-c3ccc(OC(F)(F)F)cc3)cn12` [compound 57, 2-(2-(4-cyclopropylpyridin-2-yl)ethyl)-6-(4-(trifluoromethoxy)phenyl)-[1,2,4]triazolo[4,3-a]pyridin-3(2H)-one], 20.7%.
Under `Cc1ccnc(CCn2nc3ccc(-c4ccc(OC(F)(F)F)cc4)cn3c2=O)c1` [compound 58, 2-(2-(4-methylpyridin-2-yl)ethyl)-6-(4-(trifluoromethoxy)phenyl)-[1,2,4]triazolo[4,3-a]pyridin-3(2H)-one] stands 14.9%; under `O=c1n(CCc2ccc(F)cc2)nc2ccc(-c3ccc(OC(F)(F)F)cc3)cn12` [compound 59, 2-(4-fluorophenethyl)-6-(4-(trifluoromethoxy)phenyl)-[1,2,4]triazolo[4,3-a]pyridin-3(2H)-one], 27.1%; under `O=c1n(CCc2ncccc2C2CC2)nc2ccc(-c3ccc(OC(F)(F)F)cc3)cn12` [compound 60, 2-(2-(3-cyclopropylpyridin-2-yl)ethyl)-6-(4-(trifluoromethoxy)phenyl)-[1,2,4]triazolo[4,3-a]pyridin-3(2H)-one], 34.1%.
The same measure for `Cc1cccnc1CCn1nc2ccc(-c3ccc(OC(F)(F)F)cc3)cn2c1=O` [compound 61, 2-(2-(3-methylpyridin-2-yl)ethyl)-6-(4-(trifluoromethoxy)phenyl)-[1,2,4]triazolo[4,3-a]pyridin-3(2H)-one]: 41.5%; for `O=c1n(Cc2cccc(C(F)(F)F)n2)nc2ccc(-c3ccc(OC(F)(F)F)cc3)cn12` [compound 62, 6-(4-(trifluoromethoxy)phenyl)-2-((6-(trifluoromethyl)pyridin-2-yl)methyl)-[1,2,4]triazolo[4,3-a]pyridin-3(2H)-one]: 21.6%; for `O=c1n(CCc2c(F)cccc2F)nc2ccc(-c3ccc(OC(F)(F)F)cc3)cn12` [compound 63, 2-(2,6-difluorophenethyl)-6-(4-(trifluoromethoxy)phenyl)-[1,2,4]triazolo[4,3-a]pyridin-3(2H)-one]: 46.9%.
`O=c1n(CCCc2ccc(F)c(Br)c2)nc2ccc(-c3ccc(OC(F)(F)F)cc3)cn12` [compound 64, 2-(3-(3-bromo-4-fluorophenyl)propyl)-6-(4-(trifluoromethoxy)phenyl)-[1,2,4]triazolo[4,3-a]pyridin-3(2H)-one]: the inhibition at 1 µM came out at 16.7%.
The same measure for `O=c1n(CCOc2cccc(C(F)(F)F)n2)nc2ccc(-c3ccc(OC(F)(F)F)cc3)cn12` [compound 65, 6-(4-(trifluoromethoxy)phenyl)-2-(2-(6-(trifluoromethyl)pyridin-2-yloxy)ethyl)-[1,2,4]triazolo[4,3-a]pyridin-3(2H)-one]: 21.1%.
The same measure for `O=c1n(CCCOc2ccccc2C(F)(F)F)nc2ccc(-c3ccc(OC(F)(F)F)cc3)cn12` [compound 66, 6-(4-(trifluoromethoxy)phenyl)-2-(3-(2-(trifluoromethyl)phenoxy)propyl)-[1,2,4]triazolo[4,3-a]pyridin-3(2H)-one]: 14.7%; for `COc1cc(F)ccc1OCCCn1nc2ccc(-c3ccc(OC(F)(F)F)cc3)cn2c1=O` [compound 67, 2-(3-(4-fluoro-2-methoxyphenoxy)propyl)-6-(4-(trifluoromethoxy)phenyl)-[1,2,4]triazolo[4,3-a]pyridin-3(2H)-one]: 19.2%.
Under `O=c1n(CC#Cc2cnccc2Cl)nc2ccc(-c3ccc(OC(F)(F)F)cc3)cn12` [compound 68, 2-(3-(4-chloropyridin-3-yl)prop-2-ynyl)-6-(4-(trifluoromethoxy)phenyl)-[1,2,4]triazolo[4,3-a]pyridin-3(2H)-one] stands 11.1%; under `COc1ccccc1OCCn1nc2ccc(-c3ccc(OC(F)(F)F)cc3)cn2c1=O` [compound 69, 2-(2-(2-methoxyphenoxy)ethyl)-6-(4-(trifluoromethoxy)phenyl)-[1,2,4]triazolo[4,3-a]pyridin-3(2H)-one], 32.5%; under `N#Cc1ccccc1OCCCn1nc2ccc(-c3ccc(OC(F)(F)F)cc3)cn2c1=O` [compound 70, 2-(3-(3-oxo-6-(4-(trifluoromethoxy)phenyl)-[1,2,4]triazolo[4,3-a]pyridin-2(3H)-yl)propoxy)benzonitrile], 29.9%.
